Results from patent US20090155209A1, “NOVEL MACROCYCLIC INHIBITORS OF HEPATITIS C VIRUS REPLICATION” (priority 2007, published 2009).

Assays:
NS3-NS4 [1] = target: T1, NS3-NS4 (Hepatitis C virus genotype 1a, UniProt P27958); assay: NS3-NS4 activity, IC50 (Example 37, Table 8); type: biochemical
NS3-NS4 [2] = target: T1, NS3-NS4; assay: cell-based; settings: EC50, NS3-NS4 activity

T1 sequence (P27958 1027-1657): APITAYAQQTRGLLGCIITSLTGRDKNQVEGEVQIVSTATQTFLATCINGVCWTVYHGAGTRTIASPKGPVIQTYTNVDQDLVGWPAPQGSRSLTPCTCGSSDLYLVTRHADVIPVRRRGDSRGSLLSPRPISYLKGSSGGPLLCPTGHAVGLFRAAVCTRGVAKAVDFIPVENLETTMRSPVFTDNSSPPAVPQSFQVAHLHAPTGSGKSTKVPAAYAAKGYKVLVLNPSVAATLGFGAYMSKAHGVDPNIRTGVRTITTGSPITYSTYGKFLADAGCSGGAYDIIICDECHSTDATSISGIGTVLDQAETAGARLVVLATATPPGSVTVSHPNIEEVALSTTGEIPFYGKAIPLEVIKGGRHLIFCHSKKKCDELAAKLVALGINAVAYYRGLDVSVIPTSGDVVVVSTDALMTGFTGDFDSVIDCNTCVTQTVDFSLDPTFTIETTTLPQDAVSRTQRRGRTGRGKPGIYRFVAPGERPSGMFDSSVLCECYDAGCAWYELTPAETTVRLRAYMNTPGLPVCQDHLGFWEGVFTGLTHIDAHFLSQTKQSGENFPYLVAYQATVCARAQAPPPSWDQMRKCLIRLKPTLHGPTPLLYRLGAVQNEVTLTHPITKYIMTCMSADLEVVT
T1 sequence (P27958 1658-1711): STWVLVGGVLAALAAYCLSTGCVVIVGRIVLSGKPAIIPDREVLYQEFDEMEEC

SMILES | IC50 (NS3-NS4 [1]) | EC50 (NS3-NS4 [2])
CC(C)CC1(S(=O)(=O)NC(=O)[C@@]23C[C@H]2CCCCCCC[C@H](NC(=O)OC(C)(C)C)C(=O)N2C[C@H](OC(=O)N4Cc5cccc(F)c5C4)C[C@H]2C(=O)N3)CC1 [Compound 654] | < 100 nM | < 100 nM
O=C1N[C@]2(C(=O)NS(=O)(=O)C3CC3)C[C@H]2/C=C\CCCCC[C@H](Nc2nc(-c3ccncc3)cs2)C(=O)N2C[C@H](OC(=O)N3Cc4cccc(F)c4C3)C[C@@H]12 [Compound 210] | < 100 nM | < 100 nM
CC(C)(C)OC(=O)N[C@H]1CCCCC/C=C\[C@@H]2C[C@@]2(C(=O)NS(=O)(=O)c2ccccc2)NC(=O)[C@@H]2C[C@@H](OC(=O)N3Cc4cccc(F)c4C3)CN2C1=O [Compound 501] | < 100 nM | < 100 nM
CC(C)Oc1ccc(S(=O)(=O)NC(=O)[C@@]23C[C@H]2/C=C\CCCCC[C@H](NC(=O)OC(C)(C)C)C(=O)N2C[C@H](OC(=O)N4Cc5cccc(F)c5C4)C[C@H]2C(=O)N3)cc1 [Compound 356] | < 100 nM | < 100 nM
O=C(N[C@H]1CCCCC/C=C\[C@@H]2C[C@@]2(C(=O)NS(=O)(=O)C2CC2)NC(=O)[C@@H]2C[C@@H](OC(=O)N3Cc4cccc(F)c4C3)CN2C1=O)OC1(C2CC2)CC1 [Compound 446] | < 100 nM | < 100 nM
CC(C)(C)OC(=O)N[C@H]1CCCCC/C=C\[C@@H]2C[C@@]2(C(=O)NS(=O)(=O)c2ccc(F)cc2)NC(=O)[C@@H]2C[C@@H](OC(=O)N3Cc4cccc(F)c4C3)CN2C1=O [Compound 351] | < 100 nM | < 100 nM
CC(C)(C)OC(=O)N[C@H]1CCCCC/C=C\[C@@H]2C[C@@]2(C(=O)NS(=O)(=O)c2ccccc2F)NC(=O)[C@@H]2C[C@@H](OC(=O)N3Cc4cccc(F)c4C3)CN2C1=O [Compound 349] | < 100 nM | < 100 nM
COc1cccc(ONC(=O)[C@@]23C[C@H]2CCCCCCC[C@H](NC(=O)OC(C)(C)C)C(=O)N2C[C@H](OC(=O)N4Cc5cccc(F)c5C4)C[C@H]2C(=O)N3)c1 [Compound 801] | < 100 nM | 1000 to 10000 nM
CC(C)(C)OC(=O)N[C@H]1CCCCC/C=C\[C@@H]2C[C@@]2(C(=O)NS(=O)(=O)Cc2ccccc2F)NC(=O)[C@@H]2C[C@@H](OC(=O)N3Cc4cccc(F)c4C3)CN2C1=O [Compound 507] | < 100 nM | < 100 nM
O=C(N[C@H]1CCCCC/C=C\[C@@H]2C[C@@]2(C(=O)NS(=O)(=O)C2CC2)NC(=O)[C@@H]2C[C@@H](OC(=O)N3Cc4ccc(F)cc4C3)CN2C1=O)OC1CCOCC1 [Compound 410] | < 100 nM | 100 to 1000 nM
CC(C)(C)O[C@@H]1C[C@H]2C(=O)N[C@]3(C(=O)NS(=O)(=O)C4CC4)C[C@H]3/C=C\CCCCC[C@H](Nc3ncc(-c4ccccc4)s3)C(=O)N2C1 [Compound 202, (2R,6S,13aS,14aR,16aS,Z)-2-tert-butoxy-N-(cyclopropylsulfonyl)-5,16-dioxo-6-(5-phenylthiazol-2-ylamino)-1,2,3,5,6,7,8,9,10,11,13a,14,14a,15,16,16a-hexadecahydrocyclopropa[e]pyrrolo[1,2-a][1,4]diazacyclopentadecine-14a-carboxamide] | < 100 nM | 100 to 1000 nM
CC(C)(C)OC(=O)N[C@H]1CCCCC/C=C\[C@@H]2C[C@@]2(C(=O)NS(=O)(=O)c2ccc(C(F)(F)F)cc2)NC(=O)[C@@H]2C[C@@H](OC(=O)N3Cc4cccc(F)c4C3)CN2C1=O [Compound 347] | < 100 nM | < 100 nM
CN(C(=O)N[C@H]1CCCCC/C=C\[C@@H]2C[C@@]2(C(=O)NS(=O)(=O)C2CC2)NC(=O)[C@@H]2C[C@@H](OC(=O)N3Cc4cccc(F)c4C3)CN2C1=O)C1CCCC1 [Compound 425] | < 100 nM | < 100 nM
CCCC1(S(=O)(=O)NC(=O)[C@@]23C[C@H]2CCCCCCC[C@H](NC(=O)OC(C)(C)C)C(=O)N2C[C@H](OC(=O)N4Cc5cccc(F)c5C4)C[C@H]2C(=O)N3)CC1 [Compound 651] | < 100 nM | < 100 nM
O=C(C[C@H]1CCCCC/C=C\[C@@H]2C[C@@]2(C(=O)NS(=O)(=O)C2CC2)NC(=O)[C@@H]2C[C@@H](OC(=O)N3Cc4cccc(F)c4C3)CN2C1=O)Oc1ccccc1 [Compound 419] | < 100 nM | 100 to 1000 nM
CN(C(=O)N[C@H]1CCCCC/C=C\[C@@H]2C[C@@]2(C(=O)NS(=O)(=O)c2c(F)cccc2F)NC(=O)[C@@H]2C[C@@H](OC(=O)N3Cc4cccc(F)c4C3)CN2C1=O)C(C)(C)C [Compound 362] | < 100 nM | 100 to 1000 nM
CC(C)(C)OC(=O)N[C@H]1CCCCC/C=C\[C@@H]2C[C@@]2(C(=O)NOCCO)NC(=O)[C@@H]2C[C@@H](OC(=O)N3Cc4cccc(F)c4C3)CN2C1=O [Compound 106] | < 100 nM | 100 to 1000 nM
O=C1N[C@]2(C(=O)NS(=O)(=O)C3CC3)C[C@H]2/C=C\CCCCC[C@H](Nc2nc(-c3ccc(F)cc3)cs2)C(=O)N2C[C@H](OC(=O)N3CCc4ccccc4C3)C[C@@H]12 [Compound 232] | < 100 nM | < 100 nM
CN(Cc1ccccc1)C(=O)N[C@H]1CCCCC/C=C\[C@@H]2C[C@@]2(C(=O)NS(=O)(=O)C2CC2)NC(=O)[C@@H]2C[C@@H](OC(=O)N3Cc4cccc(F)c4C3)CN2C1=O [Compound 421] | < 100 nM | < 100 nM
CC(C)(C)OC(=O)N[C@H]1CCOCC/C=C\[C@@H]2C[C@@]2(C(=O)NS(=O)(=O)c2cc(Cl)sc2Cl)NC(=O)[C@@H]2C[C@@H](OC(=O)N3Cc4cccc(Cl)c4C3)CN2C1=O [Compound 322, (2R,6S,13aS,14aR,16aS,Z)-6-(tert-butoxycarbonylamino)-14a-(2,5-dichlorothiophen-3-ylsulfonylcarbamoyl)-5,16-dioxo-2,3,5,6,7,8,10,11,13a,14,14a,15,16,16a-tetradecahydro-1H-cyclopropa[j]pyrrolo[1,2-f][1,6,9]oxadiazacyclopentadecin-2-yl 4-chloroisoindoline-2-carboxylate] | < 100 nM | < 100 nM
CC(C)(C)OC(=O)N[C@H]1CCCCC[C@H]2C[C@H]2[C@@H]2C[C@@]2(C(=O)NS(=O)(=O)C2(C)CC2)NC(=O)[C@@H]2C[C@@H](OC(=O)N3Cc4cccc(F)c4C3)CN2C1=O [Compound 903] | < 100 nM | < 100 nM
CC(=O)O[C@@H]1C[C@H]2C(=O)N[C@]3(C(=O)NS(=O)(=O)C4CC4)C[C@H]3/C=C\CCCCC[C@H](Nc3nc(-c4ccc(F)cc4)cs3)C(=O)N2C1 [Compound 233] | < 100 nM | 100 to 1000 nM
Cc1csc(S(=O)(=O)NC(=O)[C@@]23C[C@H]2CCCCCCC[C@H](NC(=O)OC(C)(C)C)C(=O)N2C[C@H](OC(=O)N4Cc5cccc(F)c5C4)C[C@H]2C(=O)N3)c1 [Compound 645] | < 100 nM | < 100 nM
CC(C)c1cnc(N[C@H]2CCCCC/C=C\[C@@H]3C[C@@]3(C(=O)NS(=O)(=O)C3CC3)NC(=O)[C@@H]3C[C@@H](OC(=O)N4Cc5cccc(F)c5C4)CN3C2=O)s1 [Compound 201, (2R,6S,13aS,14aR,16aS,Z)-14a-(cyclopropylsulfonylcarbamoyl)-6-(5-isopropylthiazol-2-ylamino)-5,16-dioxo-1,2,3,5,6,7,8,9,10,11,13a,14,14a,15,16,16a-hexadecahydrocyclopropa[e]pyrrolo[1,2-a][1,4]diazacyclopentadecin-2-yl 4-fluoroisoindoline-2-carboxylate] | < 100 nM | < 100 nM
